Reference: patent publication US12650432B2, “SCARA5 and DIO2 as biomarkers for miscarriage and implantation failure” (The University of Warwick, priority 2019, dated 2026)
Several values for one entry are separate records, joined by “and”; a condition that tells them apart may be missing. Equal entries are not always repeated. Marks after values point to notes of the source that are not given here.

Columns and labels:
[1] = granulocyte-CSF-dependent mobilisation of BMDC followed by sitagliptin 100 mg for 28 days; cited from earlier work
[2] = Outcome of first pregnancy within 12 months after study completion; format: in vivo, human; conditions: sitagliptin group
Protocol: (§1) Participants were provided with compliance and symptom diaries at each visit. Diaries were assessed at every follow-up or biopsy visit. Acceptability and satisfaction of the study was assessed with a Likert scale-based questionnaire completed by participants after their final visit. Participants who conceived after completion of the study were requested to contact the trial team and outcome of the first pregnancy within one year of study completion was recorded.

IGFBP1 = assay: RT-qPCR of IGFBP1 transcript in paired endometrial biopsies; format: in vivo, human; conditions: second vs baseline biopsy, oral 100 mg daily for 3 cycles, n=16
Protocol: (§2) RNA was extracted from RNAlater preserved tissue using the RNeasy Lipid Tissue Mini Kit (QIAGEN, Manchester, UK), with on-column DNase treatment, according to the manufacturer's instructions. RNA was assessed using a Nanodrop ND-1000 spectrophotometer and 1 μg RNA used for reverse transcription, performed using the Quantitect Reverse Transcription Kit (QIAGEN) according to manufacturer's instructions. Thermal cycling was performed on a QuantStudio 5 Real-Time PCR System (ThermoFisher, Paisley, UK), using PrecisionPlus 2× Mastermix (Primer Design, Southampton, UK), 300 nM each forward and reverse primers and 1 μl cDNA. L19 was used as a reference gene and data were analysed using the Pfaffl method (68).
(§3) Induction of PRL and IGFBP1 expression is widely used to monitor the decidual response in cultured EnSC (14).

[3] = tested on: endometrial stromal cells (EnSC); assay: Colony-forming unit (CFU) assay on EnSC from paired endometrial biopsies, randomised placebo-controlled trial in RPL patients; format: in vivo, human
Source text: Participants were recruited from a tertiary recurrent miscarriage clinic at UHCW NHS Trust. […] Participants agreed to actively avoid pregnancy and use barrier contraception for the duration of the trial.
Participants were instructed to take the capsules once daily from the day of the baseline biopsy for 3 menstrual cycles until the second biopsy was taken. The control group were allocated identical placebo capsules also supplied by Sharp Clinical Services and instructed to take these exactly as the intervention group.
(§4) Following written informed consent, participants were given a digital home ovulation test kit (Clearblue, Geneva, Switzerland), an emergency contact card, and barrier contraception. Participants then attended the clinic 7-10 days after the luteinizing hormone (LH) surge (LH+7-10). Following a negative urine pregnancy test, a transvaginal pelvic ultrasound scan was performed. Endometrial thickness was defined as the maximal endometrium diameter measured in a mid-sagittal plane. Next, an endometrial biopsy was obtained using a Wallach Endocell® endometrial sampler. The sample, designated ‘baseline biopsy’, was immediately portioned with one part stored in RNALater Stabilization Solution (Sigma-Aldrich, Dorset, UK) one part snap frozen in liquid nitrogen, one part fixed in 10% formalin for immunohistochemistry, and the remainder placed in 10% DMEM/F12 for isolation of primary endometrial stromal cells (see below). Following randomisation (see below), trial medication was provided and all participants attended two follow-up clinics at 4 weeks±4 day intervals. At these follow-up visits a urine pregnancy test was carried out, symptom diaries were reviewed, adverse events reported, and willingness for continued participation confirmed. At the second follow-up visit, participants were provided with another home ovulation test kit. In the third cycle, participants attended the clinic on LH+7-10 for a repeat transvaginal ultrasound scan with measurement of endometrial thickness and endometrial biopsy. The sample, designated ‘second biopsy’, was processed identically to the baseline biopsy. Trial medication was stopped on the day of the second biopsy.
Primary EnSC were isolated according to our published protocol (65). Briefly, samples were washed in DMEM/F-12 medium (Invitrogen), finely minced and enzymatically digested with 0.5 mg/ml collagenase (Sigma-Aldrich) and 0.1 mg/ml deoxyribonuclease type I (Roche, Burgess Hill, UK) for 1 hour in 5% CO2 at 37° C. Stromal and epithelial fractions were separated and cryopreserved in 10% DMSO in dextran-coated charcoal-stripped fetal bovine serum (DCC; 2 ml per vial; Invitrogen), with the stromal fraction split into two or three vials depending on the biopsy size. After controlled cooling at −80° C. overnight, samples were transferred to liquid nitrogen for storage.
All CFU assays were conducted in batches, consisting of paired primary endometrial stromal cells isolated from baseline and second biopsies from 3 or 4 participants. CFU assays were established as described previously (66). Briefly, cryopreserved stromal cells were thawed for 3 minutes at 37° C. and then transferred immediately into pre-warmed growth medium (DMEM-F12 medium containing 10% DCC supplemented with 1% L-Glutamine and 1% antibiotic-antimycotic mix; Invitrogen). Cells were pelleted by centrifugation at 276×g for 5 minutes, supernatant was aspirated and cells were resuspended in 10 ml growth medium. Viable stromal cells were counted in trypan blue on a Neubauer Improved haemocytometer and seeded at clonal density (53 cells/cm2) onto fibronectin-coated 6-well plates (10 μg/ml in PBS; Sigma-Aldrich) in growth medium supplemented with […] basic fibroblast growth factor (Sigma Aldrich). Three wells, containing 500 cells each, were seeded per biopsy. Plates were cultured in 5% CO2 at 37° C., and left undisturbed for 3 days after which growth was monitored to ensure colonies arose from single cells.

PRL = assay: RT-qPCR of PRL transcript in paired endometrial biopsies; format: in vivo, human; conditions: second vs baseline biopsy, oral 100 mg daily for 3 cycles, n=16
Protocol: as §2, §3

[4] = Adverse events and side effects in trial participants; format: in vivo, human
Protocol: as §4, §1

SCARA5 = assay: RT-qPCR of SCARA5 mRNA (decidual cell marker) in paired endometrial biopsies; format: in vivo, human; conditions: second vs baseline biopsy, oral 100 mg daily for 3 cycles, n=16
Protocol: as §2, §3

[5] = tested on: haematopoietic stem and progenitor cells; conditions: up to 600 mg twice daily, after umbilical cord blood transplantation; cited from earlier work
DIO2 = assay: RT-qPCR of DIO2 mRNA (senescent decidual cell marker) in paired endometrial biopsies; format: in vivo, human
Protocol: as §2, §3

[6] = sitagliptin group (n = 16), baseline biopsy before treatment

## N[C@@H](CC(=O)N1CCn2c(nnc2C(F)(F)F)C1)Cc1cc(F)c(F)cc1F [sitagliptin]
[1]
  Cardiac function: failed to improve cardiac function
[2]
  Termination of pregnancy at 16 weeks for a fetal abnormality: one
[2]; 12 pregnancies
  Live births: 8
  Spontaneous pregnancy losses before 12 weeks of gestation: 3
IGFBP1
  IGFBP1 transcript level normalized to L19: not significantly different
[3]; RPL patients, oral 100 mg once daily for 3 menstrual cycles
  Second biopsy CFU count, Median (IQR, Range): 14.0 (8.0-29.0, 3-145)^‡ per 1500 EnSC
[3]; after 3 cycles of sitagliptin
  Median increase in CFU count, second compared to baseline biopsy: +7 per 1500 EnSC
[3]; after 3 cycles, oral 100 mg daily
  Mean CFU count in second biopsy higher than placebo group, adjusted for baseline CFU count: 51%
[3]; all data, RPL patients, oral 100 mg once daily for 3 menstrual cycles
  Mean CFU count, second biopsy: 27.67 per 1500 EnSC
[3]; all data, RPL patients, oral 100 mg once daily for 3 menstrual cycles, listed as Sitagliptin
  Mean CFU count, second biopsy: 27.7 (35.8) per 1500 EnSC and 27.7 per 1500 EnSC
[3]; sitagliptin given for 3 menstrual cycles
  Average increase in CFU counts compared to baseline biopsy: 68%
[3]; [6]
  Baseline CFU count, Mean (SD): 16.1 (19.6) per 1500 EnSC
  Baseline CFU count, Median (IQR, Range): 8.5 (4.5-17.8, 1-74) per 1500 EnSC
[3]; subgroup excluding women with outlying CFU counts (>20 colonies per 1500 cells), after 3 cycles
  Mean CFU count, second biopsy: 14.42 per 1500 EnSC
PRL
  PRL transcript level normalized to L19: not significantly different
[4]; pre-pregnancy sitagliptin treatment in RPL patients
  Adverse events, overall statement: no adverse events were reported
[4]; sitagliptin group n = 19
  Chills, events: 1
  Diarrhoea, events: 0
  Dizziness, events: 2
  Dizziness, participants: 1
  Dry Nose, events: 0
  Dry mouth, events: 1
  Headache, events: 10
  Headache, participants: 4
  Low Mood, events: 1
  Mouth ulcers, events: 0
  Myalgia, events: 1
  Nausea, events: 1
  Night sweats, events: 1
  Nose bleed, events: 0
  Rash, events: 0
  Sore Throat, events: 1
  Stuffy Nose, events: 0
  Thinning of hair, events: 0
  Thirst, events: 1
  UTI, events: 1
SCARA5
  SCARA5 mRNA level normalized to L19: not altered significantly
[5]
  Engraftment of haematopoietic stem and progenitor cells in bone marrow: improve engraftment of haematopoietic stem and progenitor cells in bone marrow
DIO2; after 3 cycles oral 100 mg daily, n=16, normalized to L19, P=0.0182 vs baseline
  DIO2 mRNA level, median, second biopsy: 3.86 a.u.
DIO2; sitagliptin group before treatment, n=16, normalized to L19
  DIO2 mRNA level, median, baseline biopsy: 5.09 a.u.
